# According to patent US12208080B2, “Compositions and methods for modulation of extracellular vesicle release and treatment of neurological disorders” (GEORGE MASON RESEARCH FOUNDATION, INC., priority 2018, dated 2025):
# System: HIV-1 infected primary macrophages
# Experiment: RT-qPCR of EV-associated viral RNA from HIV-1 infected primary macrophages
# Type: cell-based
# Details: 1, 5, 10 uM
# Procedure: FIGS. 11A-11B are graphs showing CBD lowers viral RNAs in EVs released from HIV-1 infected primary macrophages. Primary PBMCs were purchased (Precision For Medicine, Frederick, Md.) and cultured in vitro first with PMA/GM-CSF for 3 days to obtain macrophages, and were then infected with HIV-1 89.6 strain (MOI.1.0) for 12 days. The macrophages were treated with PMA and GM-CSF during the infection period (added every 3 days into the fresh media). On day 12, all cells were treated with cART (4 antivirals) and kept in culture for another 3 days. On day 15, media was removed and CBD was added for 5 days (1, 5, 10 μM; at 0 and 48 hours). Supernatants were then isolated and exosomes were enriched using NT80/82 beads overnight at 4° C. […]
# To examine whether the same trend could be observed in a primary cell model, three independent HIV-1 infected primary macrophage cell cultures were treated with a titration of CBD (1, 5, and 10 uM). EVs were enriched from the extracellular supernatant using NT80/82 beads and analyzed for HIV-1 TAR and env (FIG. 11). […] To apply these findings to in vivo HIV-1 infection, total EVs were enriched from plasma samples from 15 individuals; 5 healthy donors, 5 HIV-1 positive donors, and 5 HIV-1 positive donors who used Cannabis, were trapped using NT80/82 particles and analyzed via Western blot for the presence of HIV-1 Nef protein.
compound,measurement,setting,value
"C=C(C)[C@@H]1CCC(C)=C[C@H]1c1c(O)cc(CCCCC)cc1O [CBD, 2-[1R-3-methyl-6R-(1-methylethenyl)-2-cyclohexen-1-yl]-5-pentyl-1,3-benzenediol]",TAR RNA within EVs,"three primary macrophage cultures, FIG. 11A",statistically significant decrease
same,env RNA in secreted EVs,"two out of three infected primary macrophages, FIG. 11B",statistically significant decreasing trend
